Each structure is given as a SMILES string.

For one experiment, the system named is ring stage parasites. The experiment is described as follows: Parasite growth potency assay, 72 hours, LDH readout. The class given is cell-based. To be noted: 72 h, parasite growth measured by LDH assay after 72 hours at 37° C.; 0.7% rings, 2% haematocrit; read-out: EC50. The procedure, abridged: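 Parasite growth was quantified by LDH assay after a −80 °C freeze-thaw. Before that, compound was incubated for 72 h at 37 °C under humidified gas with ring-stage cultures adjusted to 0.7% parasitemia and 2% haematocrit in serum- and albumax-supplemented RPMI-Hepes.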
For `CCC1(CC)CC(=O)N(Cc2cccc(C(=O)N[C@@H]3c4ccccc4C(F)(F)C3O)c2)C(=N)N1` (stereo in doubt) [Example 190, [1-[[3-[(3,3-difluoro-2-hydroxy-indan-1-yl)carbamoyl]phenyl]methyl]-4,4-diethyl-6-oxo-hexahydropyrimidin-2-ylidene]ammonium; 2,2,2-trifluoroacetate], the EC50 was determined as 6.6 nM. Take `CC1(C)CC(=O)N(Cc2cc(F)cc(C(=O)N[C@@H]3c4cc(F)ccc4OC(C)(C)[C@H]3O)c2)C(=N)N1` (stereo in doubt) [Example 197, [1-[[3-fluoro-5-[(6-fluoro-3-hydroxy-2,2-dimethyl-chroman-4-yl)carbamoyl]phenyl]methyl]-4,4-dimethyl-6-oxo-hexahydropyrimidin-2-ylidene]ammonium; 2,2,2-trifluoroacetate]: the 50% effective concentration (EC50) is 3.4 nM. The same measure, in the same setting: for `CCC1(CC)CC(=O)N(Cc2cccc(C(=O)N[C@@H]3c4cc(F)ccc4C[C@H]3O)c2)C(=N)N1` (stereo in doubt) [Example 199, [4,4-diethyl-1-[[3-[(6-fluoro-2-hydroxy-indan-1-yl)carbamoyl]phenyl]methyl]-6-oxo-hexahydropyrimidin-2-ylidene]ammonium; 2,2,2-trifluoroacetate] the value was 6.2 nM; for `C#CCC[C@H](c1cccc(C(=O)NC2CC3(CCC3)Oc3ccccc32)c1)N1C(=N)NC(CC)(CC)CC1=O` (stereo in doubt) [Example 211A, [4,4-diethyl-6-oxo-1-[(1R)-1-[3-[[(4S)-spiro[chromane-2,1′-cyclobutane]-4-yl]carbamoyl]phenyl]pent-4-ynyl]hexahydropyrimidin-2-ylidene]ammonium; 2,2,2-trifluoroacetate], 25 nM; for `CCC[C@H](c1cccc(C(=O)N[C@@H]2CC3(CCC3)Oc3ccccc32)c1)N1C(=N)NC(CC)(CC)CC1=O` (stereo in doubt) [Example 212A, [4,4-diethyl-6-oxo-1-[(1R)-1-[3-[[(4S)-spiro[chromane-2,1′-cyclobutane]-4-yl]carbamoyl]phenyl]butyl]hexahydropyrimidin-2-ylidene]ammonium; 2,2,2-trifluoroacetate], 8 nM. In the case of `CCC[C@H](c1cccc(C(=O)N[C@H]2CC3(CCC3)Oc3ccccc32)c1)N1C(=N)NC(CC)(CC)CC1=O` (stereo in doubt) [Example 212B, [4,4-diethyl-6-oxo-1-[(1R)-1-[3-[[(4R)-spiro[chromane-2,1′-cyclobutane]-4-yl]carbamoyl]phenyl]butyl]hexahydropyrimidin-2-ylidene]ammonium; 2,2,2-trifluoroacetate], the 50% effective concentration (EC50) was found to be 0.9 nM. With `CCC1(CC)CC(=O)N(Cc2cccc(C(=O)N[C@H]3CCOc4ccc(Cl)cc43)c2)C(=N)N1` (stereo in doubt) [Example 215B, N-(6-chlorochroman-4-yl)-3-[(4,4-diethyl-2-imino-6-oxo-hexahydropyrimidin-1-yl)methyl]benzamide], the concentration for a half-maximal effect (EC50) worked out at 3.7 nM. Still for that read-out and setting: for `CCC1(CC)CC(=O)N(Cc2cccc(C(=O)N[C@@H]3c4ccccc4OCC3(C)C)c2)C(=N)N1` (stereo in doubt) [Example 216, 3-[(4,4-diethyl-2-imino-6-oxo-hexahydropyrimidin-1-yl)methyl]-N-(3,3-dimethylchroman-4-yl)benzamide] the value was 0.5 nM. As for `CCC1(CC)CC(=O)N(Cc2cccc(C(=O)N[C@H]3CCOc4ccc(C)cc43)c2)C(=N)N1` (stereo in doubt) [Example 217, 3-[(4,4-diethyl-2-imino-6-oxo-hexahydropyrimidin-1-yl)methyl]-N-(6-methylchroman-4-yl)benzamide], the EC50 was 10 nM.

Turning to `CCC1(CC)CC(=O)N(Cc2cccc(C(=O)N[C@H]3CCOc4ccc(Br)cc43)c2)C(=N)N1` (stereo in doubt) [Example 219, [1-[[3-[(6-bromochroman-4-yl)carbamoyl]phenyl]methyl]-4,4-diethyl-6-oxo-hexahydropyrimidin-2-ylidene]ammonium; 2,2,2-trifluoroacetate], the 50% effective concentration (EC50) stood at 6.6 nM.

In the case of `CCC1(CC)CC(=O)N([C@H](CCOC)c2cc(F)cc(C(=O)NC3CCCOc4ccccc43)c2)C(=N)N1` (stereo in doubt) [Example 220, [4,4-diethyl-1-[1-[3-fluoro-5-(2,3,4,5-tetrahydro-1-benzoxepin-5-ylcarbamoyl)phenyl]-3-methoxy-propyl]-6-oxo-hexahydropyrimidin-2-ylidene]ammonium; 2,2,2-trifluoroacetate], the EC50 came out at 2.4 nM. Still for that read-out and setting: next, `C#CCCC(c1cccc(C(=O)N[C@@H]2c3ccccc3C[C@H]2O)c1)N1C(=N)NC(CC)(CC)CC1=O` (stereo in doubt) [Example 221, 3-[(1S)-1-(4,4-diethyl-2-imino-6-oxo-hexahydropyrimidin-1-yl)pent-4-ynyl]-N-[(1R,2R)-2-hydroxyindan-1-yl]benzamide]: 35.4 nM; `CCC1(CC)CC(=O)N(Cc2cccc(C(=O)N[C@@H]3c4ccccc4OC(C)(C)[C@H]3O)c2)C(=N)N1` [Example 1, 3-((4,4-diethyl-2-imino-6-oxotetrahydropyrimidin-1(2H)-yl)methyl)-N-((3S,4R)-3-hydroxy-2,2-dimethylchroman-4-yl)benzamide]: 0.8 nM. The same measure, in the same setting: for `CCC1(CC)CC(=O)N([C@H](CCOC)c2cccc(C(=O)N[C@@H]3c4ccccc4C[C@H]3O)c2)C(=N)N1` [Example 2, 3-((R)-1-(4,4-diethyl-2-imino-6-oxotetrahydropyrimidin-1(2H)-yl)-3-methoxypropyl)-N-((1R,2R)-2-hydroxy-2,3-dihydro-1H-inden-1-yl)benzamide] the value was 1.3 nM; for `CC(C)[C@]1(C)CC(=O)N(Cc2cccc(C(=O)N[C@H]3CCOc4ccccc43)c2)C(=N)N1` [Example 3, [(4S)-1-[[3-[[(4S)-chroman-4-yl]carbamoyl]phenyl]methyl]-4-isopropyl-4-methyl-6-oxo-hexahydropyrimidin-2-ylidene]ammonium; 2,2,2-trifluoroacetate], 6.2 nM; for `CCC1(CC)CC(=O)N([C@H](c2ccccc2)c2cccc(C(=O)N[C@H]3CCOc4ccccc43)c2)C(=N)N1` [Example 4A, [1-[[3-[[(4S)-chroman-4-yl]carbamoyl]phenyl]-phenyl-methyl]-4,4-diethyl-6-oxo-hexahydropyrimidin-2-ylidene]ammonium; 2,2,2-trifluoroacetate], 0.4 nM.

In the case of `CCC1(CC)CC(=O)N([C@H](c2ccccc2)c2cccc(C(=O)N[C@@H]3CCOc4ccccc43)c2)C(=N)N1` [Example 4B, [1-[[3-[[(4R)-chroman-4-yl]carbamoyl]phenyl]-phenyl-methyl]-4,4-diethyl-6-oxo-hexahydropyrimidin-2-ylidene]ammonium; 2,2,2-trifluoroacetate], the EC50 came out at 35.4 nM. On the same count and under the same terms, next, `N=C1N[C@@](CC2CC2)(c2ccccc2)CC(=O)N1Cc1cc(F)cc(C(=O)N[C@H]2CCOc3ccccc32)c1` [Example 5A, [(4R)-1-[[3-[[(4S)-chroman-4-yl]carbamoyl]-5-fluoro-phenyl]methyl]-4-(cyclopropylmethyl)-6-oxo-4-phenyl-hexahydropyrimidin-2-ylidene]ammonium; 2,2,2-trifluoroacetate]: 16.2 nM.

Still in this experiment, the particulars now being: parasite growth measured by LDH assay after 72 hours at 37° C.; 0.7% rings, 2% haematocrit; trifluoroacetate; read-out: EC50.
Consider `CCC1(CC)CC(=O)N(Cc2cccc(C(=O)N[C@@H]3c4ccccc4OC3(C)CO)c2)C(=N)N1` (stereo in doubt) [Example 187A, [4,4-diethyl-1-[[3-[[2-(hydroxymethyl)-2-methyl-3H-benzofuran-3-yl]carbamoyl]phenyl]methyl]-6-oxo-hexahydropyrimidin-2-ylidene]ammonium; 2,2,2-trifluoroacetate], for which the EC50 came to 54.2 nM. On the same count and under the same terms, next, `CCC1(CC)CC(=O)N(Cc2cccc(C(=O)N[C@@H]3c4ccccc4OC3(C)CO)c2)C(=N)N1` (stereo in doubt) [Example 187B, [4,4-diethyl-1-[[3-[[2-(hydroxymethyl)-2-methyl-3H-benzofuran-3-yl]carbamoyl]phenyl]methyl]-6-oxo-hexahydropyrimidin-2-ylidene]ammonium; 2,2,2-trifluoroacetate]: 19.3 nM; `C#CCC[C@H](c1cccc(C(=O)NC2CC3(CCC3)Oc3ccccc32)c1)N1C(=N)NC(CC)(CC)CC1=O` (stereo in doubt) [Example 211B, [4,4-diethyl-6-oxo-1-[(1R)-1-[3-[[(4R)-spiro[chromane-2,1′-cyclobutane]-4-yl]carbamoyl]phenyl]pent-4-ynyl]hexahydropyrimidin-2-ylidene]ammonium; 2,2,2-trifluoroacetate]: 0.5 nM; `C#CCC[C@@H](c1cccc(C(=O)N[C@@H]2CC3(CCC3)Oc3ccccc32)c1)N1C(=N)NC(CC)(CC)CC1=O` (stereo in doubt) [Example 213, [4,4-diethyl-6-oxo-1-[(S)-1-[3-[[(4R)-spiro[chromane-2,1′-cyclobutane]-4-yl]carbamoyl]phenyl]pent-4-ynyl]hexahydropyrimidin-2-ylidene]ammonium; 2,2,2-trifluoroacetate]: 28.6 nM. The same measure, in the same setting: next, `CCC1(CC)CC(=O)N(Cc2cccc(C(=O)N[C@H]3CC(c4ccccc4)Oc4ccccc43)c2)C(=N)N1` (stereo in doubt) [Example 218A, [4,4-diethyl-6-oxo-1-[[3-[(2-phenylchroman-4-yl)carbamoyl]phenyl]methyl]hexa-hydropyrimidin-2-ylidene]ammonium; 2,2,2-trifluoroacetate]: 55 nM; `CCC1(CC)CC(=O)N(Cc2cccc(C(=O)N[C@H]3CC(c4ccccc4)Oc4ccccc43)c2)C(=N)N1` (stereo in doubt) [Example 218B, [4,4-diethyl-6-oxo-1-[[3-[(2-phenylchroman-4-yl)carbamoyl]phenyl]methyl]hexa-hydropyrimidin-2-ylidene]ammonium; 2,2,2-trifluoroacetate]: 1.1 nM.
